Experimental data published in patent US20020155172A1, “Methods and compounds for decreasing cell toxicity or death” (priority 2000, published 2002).

Experiments:
[1] = tested on: polyglutamine aggregates of HA-Q79-GFP expressing cells; assay: Filter assay (0.2 μm acetate filter); assay type: cell-based
Description: FIG. 6D is a scanned image of a filter showing the effect of Congo red on pre-formed oligomers as assessed by the filter assay described herein. Cells were treated with PBS or 100 μM of Congo red 6 hours after transfection with Q79-GFP. Lysates from these cells were obtained 42 hours later, and passed through a 0.2 micron pore filter. In addition, Q79 aggregates were treated with Congo red after they were recovered from cells to test for disruption of pre-formed aggregates.
FIG. 7C is an image of an immunoblot of lysates from Q79 expressing cells that were treated with PBS or Congo red during or after transfection, as indicated in the Figure and passed through a 0.2 micron filter. Endogenous caspase-8 and the adapter protein FADD were trapped in the filter in cell lysates containing oligomerized polyglutamine repeats, and probed using a caspase-8 or FADD antibody.
To further confirm the ability of Congo red to inhibit the formation of polyglutamine aggregates, as well as to disrupt preformed aggregates, we analyzed the state of polyglutamine aggregation by examining equal aliquots of total lysates from Congo-red- or vehicle-treated HA-Q79-GFP expressing cells, or the lysates that were treated with Congo red or vehicle after cell lysis. The cell lysates were passed through a 0.2 μm acetate filter and then visualized by immunostaining with anti-HA antibody (FIG. 6D).

R62 mice = assay: EM48 immunostaining of polyglutamine aggregates in brain; assay type: in vivo
Description: To test whether Congo red can disrupt and inhibit the formation of expanded polyglutamine oligomers in vivo, we analyzed the brain samples from control- and Congo red-treated […] mice. Mice were anesthetized with isoflurane, perfused intracardially with 4% paraformaldehyde in phosphate buffered saline (pH 7.4). The brain was removed and washed several times in PBS before overnight incubation in PBS containing 30% sucrose, and was then embedded in OTC (Sigma, MO.). Cryostat frozen sections were washed in PBS, and non-specific binding was blocked with 5% normal goat serum in PBS containing 0.1% Triton. Sections were stained using an anti-EM48 antibody at a 1:1000 dilution, and immunoreactivity was detected using the ABC kit, as described by the manufacturer (Vector, Co.). Some slides were lightly counter stained with hematoxylin.

[2] = tested on: HeLa cells transfected with the Q79-GFP plasmid; assay: Cell death by receptor-mediated pathways (TNF-α or anti-FasR with cycloheximide); assay type: cell-based; settings: Congo red 100 μM, 72 hours
Description: FIG. 4B is a graph showing the effect of Congo red (CR) on the induction of cell death by receptor-mediated pathways. HeLa cells transfected with a Q79-GFP plasmid were treated with TNF-a or anti-FasR and cycloheximide (CHX), in the presence or absence of CR (100 μM). The amount of cell death was measured 72 hours after transfection.
The effect of Congo red on the induction of cell death by receptor-mediated pathways was also evaluated. Once again, HeLa cells were transfected with the Q79-GFP plasmid, and six hours later were administered Tumor Necrosis Factor-alpha (TNF-α) or anti-FasR in the presence of cycloheximide (CHX). The samples were then incubated with or without Congo red (100 μM). The amount of cell death was measured 72 hours after exposure to the compounds (FIG. 4B).

[3] = tested on: GST-Q19, GST-Q62, and GST-Q81; assay: Chemical absorption assay, polyglutamine repeat length; assay type: binding; settings: 10 μg/ml Congo red in PBS; equal protein concentrations
Description: FIG. 6A is a graph of the percent of binding of Congo red to expanded polyglutamine repeats Q81, Q62, and Q19.
To determine if Congo red and its derivatives directly bind to expanded polyglutamine aggregates, we designed a chemical absorption assay. This assay measures the remaining Congo red in the supernatant after incubating the supernatant with GST-tagged polyglutamine beads, and removing the GST-polyglutamine beads by centrifugation. This assay was carried out as follows. Recombinant protein GST-Q19, GST-Q62, and GST-Q81 (containing 19, 62, and 81 polyglutamines, respectively) was purified from E. coli by glutathione beads. After several washes with PBS containing protease inhibitors, the beads were allowed to settle to the bottom of the tube at 24° C. for 10 minutes. The polyglutamine-bound beads were aliquoted and diluted with two volumes of 10 μg/ml of Congo red in PBS. The beads were mixed and centrifuged at 15,000 rpm for 2 minutes and the supernatant was removed and diluted 1:100. The percentage absorbance of the compound remaining in the supernatant after absorption with the GST-polyQ beads was then detected. In addition, Congo red- or PBS-only treated polyglutamine polypeptide bead pellets were washed three times with 100 volumes of PBS and then the protein was separated by 12% polyacrylamide gels and immunoblotted as mentioned above. […]

cells; primary neurons = assay: Compound toxicity in cells; assay type: cell-based
RIP, FADD, and Daxx = assay: Apoptosis induced by overexpression of adapter proteins; assay type: cell-based
Description: FIG. 5G is a graph of the effects of Congo red on cell death induced by adapter protein oligomerization (Daxx, RIP, FADD).
HeLa cells expressing Q79 expanded polyglutamine repeats were treated with 100 μM Congo red, or 100 μM ZVAD (a positive control) for one hour prior to the addition of the apoptosis-inducing agent, and cell death was determined 48 hours later. […] Finally we tested whether Congo red can inhibit apoptosis induced by overexpression of caspase-1, -8, or -11.

[4] = tested on: HeLa cells transfected with Q79-GFP; assay: Q79-GFP aggregates in HeLa cells by fluorescence microscopy; assay type: cell-based; settings: 100 μM
Description: FIG. 5I is a set of scanned images of HeLa cells expressing Q79-GFP and subsequently treated with Congo red (100 μM), or ZVAD (100 μM), as detected by fluorescence microscopy.
Changes in energy metabolism have been detected in brains of pre-symptomatic HD animal models, and in pre-symptomatic patients. We detected a pronounced decline in ATP levels upon expanded polyglutamine expression in cells as early as 24 hours. […] Expression of Q79-GFP in HeLa cells transfected with Q79-GFP and subsequently treated with Congo red (100 μM), or ZVAD (100 μM), is shown in FIG. 51.

caspase-8 = assay: Activation of caspase-8 by Western blot; assay type: cell-based; settings: HeLa, HA-tagged Q79-GFP
Description: Expanded polyglutamine repeats recruit and activate caspase-8 (Sanchez et al., supra). We tested if the treatment of cells expressing expanded polyglutamine repeats with Congo red inhibits the activation of caspase-8. HeLa cells were transfected with a hemagglutinin-tagged (HA) […]-GFP construct in the presence or absence of Congo red and the cell lysates were analyzed by Western blot analysis for the expression of caspase-8, or for expression of HA. The appearance of a 45 kilodalton active caspase-8 fragment was detected at 24 hours after transfection, which was before significant loss of cytoplasmic membrane integrity and morphological changes occurred, and near the time of ATP loss (FIG. 5E).

## Nc1c(/N=N/c2ccc(-c3ccc(/N=N/c4cc(S(=O)(=O)O)c5ccccc5c4N)cc3)cc2)cc(S(=O)(=O)O)c2ccccc12 [Congo red, diphenyldiazo-bis-alpha-napthylaminesulfonate]
[1]; cell lysates treated with Congo red after cell lysis
  polyglutamine aggregates retained by 0.2 μm filter, lysates treated: undetectable
[1]; cells treated with Congo red (100 μM) 6 hours after transfection
  polyglutamine aggregates retained by 0.2 μm filter, cells treated: undetectable
[1]; lysates of Q79 expressing cells
  FADD and caspase-8 in a complex retained by 0.2 μm filter: not in Congo red-treated lysates
R62 mice; R62 mice
  EM48 positive polyglutamine aggregates in the cortex and hippocampus: reduction of EM48 positive polyglutamine aggregates
R62 mice; R62 mice 12.5 weeks old
  expanded polyglutamine repeats in the basal ganglia (EM48): Extensive clearance of expanded polyglutamine repeats
[2]
  induction of cell death by receptor-mediated pathways: does not alter the induction of cell death by receptor-mediated pathways
[3]
  affinity for polyglutamine repeats Q81 or Q62 compared to Q19: significantly higher affinity for expanded polyglutamine repeats that were 81 or 62 polyglutamines in length
cells; primary neurons
  compound toxicity in cells: not toxic even to primary neurons
RIP, FADD, and Daxx
  apoptosis induced by overexpression of RIP, FADD, or Daxx: had no effect on apoptosis induced by overexpression of RIP, FADD, or Daxx
[4]
  polyglutamine aggregates in cells: displayed fewer polyglutamine aggregates
caspase-8
  appearance of active caspase-8 (45 kilodalton fragment): completely inhibited the appearance of active caspase-8
